Measured values: ChEMBL document CHEMBL5126556, “Recent advances in natural anti-obesity compounds and derivatives based on in vivo evidence: A mini-review” (Eur J Med Chem, 2022)
pIC50, pKd: −log10 of the molar value.

Legend:
[1] = biological target: T1, Dihydrolipoyllysine-residue acetyltransferase component of pyruvate dehydrogenase complex, mitochondrial (Homo sapiens, UniProt P10515); assay: Binding affinity to recombinant GFP fused […] (unknown origin) by Lip-SMap analysis
T1 sequence (P10515 whole entry): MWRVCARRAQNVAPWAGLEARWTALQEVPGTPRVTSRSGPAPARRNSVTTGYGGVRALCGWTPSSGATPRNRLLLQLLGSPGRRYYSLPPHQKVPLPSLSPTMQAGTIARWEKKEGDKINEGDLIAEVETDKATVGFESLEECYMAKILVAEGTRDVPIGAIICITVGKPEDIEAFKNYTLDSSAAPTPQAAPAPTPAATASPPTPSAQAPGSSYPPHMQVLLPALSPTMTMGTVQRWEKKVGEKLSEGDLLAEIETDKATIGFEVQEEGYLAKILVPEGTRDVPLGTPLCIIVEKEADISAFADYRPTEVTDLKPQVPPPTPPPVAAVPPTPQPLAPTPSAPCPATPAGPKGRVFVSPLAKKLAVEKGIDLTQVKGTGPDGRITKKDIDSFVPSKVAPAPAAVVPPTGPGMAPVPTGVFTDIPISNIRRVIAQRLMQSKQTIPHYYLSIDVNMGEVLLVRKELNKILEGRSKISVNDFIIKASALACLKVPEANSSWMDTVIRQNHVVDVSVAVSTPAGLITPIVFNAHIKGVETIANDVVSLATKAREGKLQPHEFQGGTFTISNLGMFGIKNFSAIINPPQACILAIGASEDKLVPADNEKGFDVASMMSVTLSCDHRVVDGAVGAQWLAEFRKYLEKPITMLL

Mus musculus [2] = assay: Anti-obesity activity in male C57BL/6 mouse model of high-fat diet induced obesity assessed as body weight change at 2.5 mg/kg, ip administered once a day for 8 weeks relative to control; type: functional
Mus musculus [3] = assay: Anti-obesity activity in male C57BL/6 mouse model of high-fat diet induced obesity assessed as body weight change administered orally with 0.5 g in 500 g of HFD diet for 13 weeks relative to control; type: functional; settings: route po, at 0.5 g
Mus musculus [4] = assay: Anti-obesity activity in male C57BL/6 mouse model of high-fat diet induced obesity assessed as body weight change at 30 mg/kg, po administered once a day for 10 weeks relative to control; type: functional
Mus musculus [5] = assay: Anti-obesity activity in high-fat diet induced C57BL/6 obese mouse model assessed as body weight change at 30 mg/kg, po administered once daily for 10 weeks relative to control; type: functional
Mus musculus [6] = assay: Anti-obesity activity in male C57BL/6 mouse model of high-fat diet induced obesity assessed as body weight change at 25 mg/kg, ip administered once a day for 13 weeks relative to control; type: functional
Mus musculus [7] = assay: Anti-obesity activity in male C57BL/6 mouse model of high-fat diet induced obesity assessed as body weight change at 50 mg/kg, ip administered every other day for 5 weeks relative to control; type: functional
Mus musculus [8] = assay: Anti-obesity activity in female C57BL/6 mouse model of high-fat diet induced obesity assessed as body weight change at 40 mg/kg, po administered once daily for 16 weeks relative to control; type: functional
Mus musculus [9] = assay: Anti-obesity activity in ovariectomized C57BL/6 mouse assessed as body weight change at 40 mg/kg, po administered once daily for 16 weeks relative to control; type: functional
[10] = biological target: T2, Pancreatic triacylglycerol lipase (Sus scrofa, UniProt P00591); assay: Inhibition of porcine pancreatic lipase using trioleate as substrate assessed as inhibition of substrate hydrolysis measured for 10 mins
T2 sequence (P00591 whole entry): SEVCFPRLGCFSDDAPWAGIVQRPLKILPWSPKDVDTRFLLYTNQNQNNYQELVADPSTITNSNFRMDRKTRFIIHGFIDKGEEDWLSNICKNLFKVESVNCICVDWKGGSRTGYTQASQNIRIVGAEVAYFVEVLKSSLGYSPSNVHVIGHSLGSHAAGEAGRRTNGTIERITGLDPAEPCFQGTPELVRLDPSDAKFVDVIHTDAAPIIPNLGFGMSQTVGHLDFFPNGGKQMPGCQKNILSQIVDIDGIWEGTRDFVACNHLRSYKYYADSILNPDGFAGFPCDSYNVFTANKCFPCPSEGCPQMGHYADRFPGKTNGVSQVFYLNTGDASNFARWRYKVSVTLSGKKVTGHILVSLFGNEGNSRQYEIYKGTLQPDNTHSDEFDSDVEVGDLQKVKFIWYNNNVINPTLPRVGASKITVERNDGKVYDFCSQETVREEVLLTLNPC

Mus musculus [11] = assay: Anti-obesity activity in high-fat diet induced obesity model of C57BL/6J mouse assessed as body weight loss at 20 mg/kg/day, po administered once daily for 14 days relative to control; type: functional; settings: time 14 day
Mus musculus [12] = assay: Anti-obesity activity in high-fat diet induced obesity model of C57BL/6J mouse assessed as body weight loss at 40 mg/kg/day, ip administered once daily for 14 days relative to control; type: functional; settings: time 14 day
[13] = Acute toxicity in po dosed C57BL/6J mouse assessed as lethal dose; type: organism-based; settings: in vivo
[14] = biological target: BDNF/NT-3 growth factors receptor (Homo sapiens, UniProt Q16620); assay: Binding affinity to recombinant human TrkB receptor ECD assessed as dissociation constant
Sequence of BDNF/NT-3 growth factors receptor (Q16620 whole entry, the tested form may be a part): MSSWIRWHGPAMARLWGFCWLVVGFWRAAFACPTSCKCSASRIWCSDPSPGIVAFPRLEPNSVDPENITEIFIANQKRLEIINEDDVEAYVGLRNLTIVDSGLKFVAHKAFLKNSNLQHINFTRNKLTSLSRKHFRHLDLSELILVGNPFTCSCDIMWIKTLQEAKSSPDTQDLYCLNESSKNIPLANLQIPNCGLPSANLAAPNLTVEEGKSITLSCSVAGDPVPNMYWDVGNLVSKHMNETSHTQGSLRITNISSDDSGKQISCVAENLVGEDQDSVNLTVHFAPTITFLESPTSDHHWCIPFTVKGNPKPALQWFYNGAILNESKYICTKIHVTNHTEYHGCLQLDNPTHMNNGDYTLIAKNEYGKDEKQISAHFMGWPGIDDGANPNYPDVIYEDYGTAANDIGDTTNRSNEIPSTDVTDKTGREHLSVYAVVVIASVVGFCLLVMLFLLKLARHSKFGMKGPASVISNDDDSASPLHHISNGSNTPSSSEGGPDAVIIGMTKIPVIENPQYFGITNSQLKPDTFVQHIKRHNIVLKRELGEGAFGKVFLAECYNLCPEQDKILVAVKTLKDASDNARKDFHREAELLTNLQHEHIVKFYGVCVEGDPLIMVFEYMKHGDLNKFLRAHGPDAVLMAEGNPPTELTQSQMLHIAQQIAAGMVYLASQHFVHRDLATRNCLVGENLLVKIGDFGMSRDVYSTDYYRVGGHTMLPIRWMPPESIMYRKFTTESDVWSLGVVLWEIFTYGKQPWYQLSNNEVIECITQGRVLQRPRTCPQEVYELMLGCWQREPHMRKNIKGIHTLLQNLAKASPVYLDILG

Mus musculus [15] = assay: Anti-obesity activity in female C57BL/6 mouse model of high-fat diet induced obesity assessed as body weight change administered orally for 20 weeks relative to control; type: functional; settings: route po
Mus musculus [16] = assay: Anti-obesity activity in male C57BL/6 mouse model of high-fat diet induced obesity assessed as body weight change at 15 mg/kg, ip administered once a day for 8 weeks relative to control; type: functional
[17] = Toxicity in po dosed mouse assessed as lethal dose; type: organism-based; settings: in vivo
Mus musculus [18] = assay: Anti-obesity activity in male C57BL/6 mouse model of high-fat diet induced obesity assessed as body weight change at 3 mg/kg, po administered once a day for 8 weeks relative to control; type: functional
Mus musculus [19] = assay: Anti-obesity activity in male C57BL/6 mouse model of high-fat diet induced obesity assessed as body weight change at 0.1 mg/kg, ip administered once a day for 3 weeks relative to control; type: functional
Mus musculus [20] = assay: Anti-obesity activity in male C57BL/6 mouse model of high-fat diet induced obesity assessed as body weight change at 10 mg/kg, po administered once a day for 3 weeks relative to control; type: functional
[21] = Inhibition of V-ATPase in bovine chromaffin granules incubated for 1 hrs by absorbance based assay; type: subcellular, Bos taurus, Chromaffin granule
Mus musculus [22] = assay: Anti-obesity activity in male C57BL/6 mouse model of high-fat diet induced obesity assessed as body weight change at 100 mg/kg, po administered once a day for 9 weeks relative to control; type: functional

CC(C)=CCC[C@]1(C)[C@@H](CC=C(C)C)C[C@]2(CC=C(C)C)C(=O)C(CC=C(C)C)=C(O)[C@@]1(C(=O)C(C)C)C2=O
pKd [1]: 6.24 | Activity (Mus musculus [2]): -13.7%

O=c1c(-c2ccc(O)c(O)c2)coc2cc(O)ccc12
Activity (Mus musculus [3]): 63.5%

O=c1oc2cc(O)ccc2c2ccc(O)cc12
Activity (Mus musculus [4]): 30.8% | Activity (Mus musculus [5]): 42.7%

CC(C)(O)[C@@H]1CC[C@](C)([C@H]2[C@@H](O)C[C@@]3(C)[C@@H]4C[C@H](O[C@@H]5O[C@H](CO)[C@@H](O)[C@H](O)[C@H]5O)[C@H]5C(C)(C)[C@@H](O[C@@H]6OC[C@@H](O)[C@H](O)[C@H]6O)CC[C@@]56C[C@@]46CC[C@]23C)O1
Activity (Mus musculus [6]): 25.4%

O=Cc1c(-c2nc3ccccc3c(=O)[nH]2)[nH]c2ccccc12
Activity (Mus musculus [7]): -11.8%

COc1cc(O)c2c(=O)oc(-c3ccccc3)cc2c1CC=C(C)C
Activity (Mus musculus [8]): 28.6% | Activity (Mus musculus [9]): 17.9%

CCCCC/C=C\C/C=C\C[C@@H](C[C@@H]1OC(=O)[C@H]1CCCCCC)OC(=O)[C@H](CC(C)C)NC=O
pIC50 [10]: 6.85

CC1(C)[C@@H](O)C(O)=C[C@]2(C)[C@H]3C(=O)C=C4[C@@H]5C[C@@](C)(C(=O)O)CC[C@]5(C)CC[C@@]4(C)[C@]3(C)CC[C@@H]12
Activity (Mus musculus [11]): 26% | Activity (Mus musculus [12]): 20% | LD50 [13]: 940 mg/kg

O=c1cc(-c2ccccc2)oc2c(O)c(O)ccc12 [7,8-DIHYDROXYFLAVONE]
pKd [14]: 8.00 | Activity (Mus musculus [15]): 72.2%

O=C(/C=C/c1ccc(O)c(O)c1)c1ccc(O)cc1O [BUTEIN]
Activity (Mus musculus [16]): 42.9%

CC1=C(O)C(=O)C=C2C1=CC=C1[C@@]2(C)CC[C@@]2(C)[C@@H]3C[C@](C)(C(=O)O)CC[C@]3(C)CC[C@]12C [CELASTROL]
LD50 [17]: 20.5 mg/kg | Activity (Mus musculus [18]): 1.8% | Activity (Mus musculus [19]): -27.7% | Activity (Mus musculus [20]): -45.4%

COc1cc2c(O)c3c(c(-c4ccc5c(c4)OCO5)c2cc1OC)C(=O)OC3 [DIPHYLLIN]
pIC50 [21]: 7.77 | Activity (Mus musculus [22]): 13.7%
